Laboratory results reported in the supplement of paper PMC10307832.

Key:
Assay in all cases: relative viability (nuclei count vs DMSO), 5 days (fraction); higher = more cells survive
[1] = compound: CN[C@@H]1C[C@H]2O[C@@](C)([C@@H]1OC)n1c3ccccc3c3c4c(c5c6ccccc6n2c5c31)C(=O)NC4 [Staurosporine] + COc1cccc2cc(-c3nc([C@H]4CC[C@H](C(=O)O)CC4)n4ncnc(N)c34)[nH]c12 [OSI-027] (partner 0.5 µM)
Outline: (§1)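 Relative viability equals treated-well nuclei counts divided by vehicle-well nuclei counts. Counts came from 4× images of lung cancer cell lines grown in 1536-well plates for 5 days after pin-tool dosing on the day after seeding. Dosing used one drug alone or a fixed anchor-drug dose plus five library-drug doses (not always all listed) in √10 steps, and values are medians of duplicate plates.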

[2] = compound: CC1=C(CC(=O)O)c2cc(F)ccc2/C1=C\c1ccc([S+](C)[O-])cc1 [Sulindac] + CCNC(=O)c1noc(-c2cc(C(C)C)c(O)cc2O)c1-c1ccc(CN2CCOCC2)cc1 [Luminespib] (partner 0.01 µM)
Outline: as §1

[3] = compound: CC1=C(CC(=O)O)c2cc(F)ccc2/C1=C\c1ccc([S+](C)[O-])cc1 [Sulindac] + C[C@@H](Oc1cc(-c2cnn(C3CCNCC3)c2)cnc1N)c1c(Cl)ccc(F)c1Cl [Crizotinib] (partner 1 µM)
Outline: as §1

[4] = compound: O=c1[nH]cc(F)c(=O)[nH]1 [5-Fluorouracil] + O=C(CCCCCCC(=O)Nc1ccccc1)NO [Vorinostat] (partner 1 µM)
Outline: as §1

Cell Line | relative viability ([1]; first compound 0.005 µM) | relative viability ([1]; first compound 0.01581 µM) | relative viability ([1]; first compound 0.05 µM) | relative viability ([1]; first compound 0.1581 µM) | relative viability ([1]; first compound 0.5 µM) | relative viability ([2]; first compound 0.08 µM) | relative viability ([2]; first compound 0.253 µM) | relative viability ([2]; first compound 0.8 µM) | relative viability ([2]; first compound 2.53 µM) | relative viability ([2]; first compound 8 µM) | relative viability ([3]; first compound 0.08 µM) | relative viability ([3]; first compound 0.253 µM) | relative viability ([3]; first compound 0.8 µM) | relative viability ([3]; first compound 2.53 µM) | relative viability ([3]; first compound 8 µM) | relative viability ([4]; first compound 0.02 µM) | relative viability ([4]; first compound 0.2 µM) | relative viability ([4]; first compound 0.6325 µM) | relative viability ([4]; first compound 2 µM)
NCI-H1755 | 0.344 | 0.268 | 0.209 | 0.189 | 0.18 | 0.546 | 0.829 | 0.399 | 0.536 | 0.486 | 1 | 0.886 | 0.743 | 0.981 | 0.935 | 0.777 | 0.493 | 0.307 | 0.306
NCI-H1915 | 0.448 | 0.115 | 0.193 | 0.0877 | 0.111 | 1.07 | 0.883 |  | 0.909 | 0.813 | 1.25 | 1.02 | 0.676 | 0.903 | 0.947 | 0.404 | 0.493 | 0.587 | 0.407
NCI-H1944 | 0.322 | 0.153 | 0.257 | 0.166 | 0.119 | 0.753 | 0.838 | 0.706 | 0.864 | 0.963 | 0.972 | 1.29 | 0.826 | 0.952 | 1.24 | 0.5 | 0.372 | 0.201 | 0.164
NCI-H1975 | 0.573 | 0.144 | 0.187 |  | 0.0826 | 0.189 | 0.205 | 0.159 | 0.174 | 0.267 | 1.06 | 1.07 |  | 1.01 | 1.14 | 0.748 | 0.457 | 0.302 | 0.215
NCI-H1993 | 0.551 | 0.445 | 0.614 | 0.399 | 0.461 | 0.718 | 0.774 | 0.645 | 0.961 | 0.988 | 0.848 | 0.862 | 0.747 | 0.86 | 0.83 | 0.846 | 0.552 | 0.494 | 0.547
NCI-H2009 | 0.233 |  | 0.163 | 0.123 | 0.082 | 1.15 | 1.01 | 1.05 | 0.986 | 1.15 | 1.15 | 1.05 | 1.05 | 0.985 | 1.24 | 0.75 | 0.825 | 0.753 | 0.396
NCI-H2023 | 0.185 | 0.101 | 0.084 | 0.0704 | 0.0498 | 0.923 | 0.845 |  | 0.649 | 0.92 | 0.686 | 0.429 | 0.53 | 0.718 | 0.685 | 0.369 | 0.124 | 0.103 | 0.0849
NCI-H2085 | 0.597 | 0.168 | 0.249 | 0.155 | 0.148 | 0.39 | 0.414 | 0.426 | 0.428 | 0.36 | 0.735 | 0.944 | 0.779 | 0.772 | 0.953 | 0.754 | 0.96 | 0.728 | 0.651
NCI-H2087 | 0.366 | 0.135 | 0.147 | 0.106 | 0.107 | 0.196 | 0.164 |  | 0.148 | 0.167 | 1.08 | 0.882 | 0.739 | 1.03 | 0.85 | 0.801 | 0.924 | 0.515 | 0.367
NCI-H2126 | 0.712 | 0.406 | 0.486 | 0.338 | 0.333 | 0.963 | 0.804 | 0.888 | 0.991 | 0.955 | 1.13 | 1.01 | 1.03 | 1.04 | 1.11 | 0.59 | 0.296 | 0.279 | 0.262
NCI-H2170 | 0.815 |  | 0.576 | 0.175 | 0.0943 | 0.782 | 0.755 | 0.941 | 0.671 | 0.627 | 1.21 | 1.21 | 0.771 | 1.2 | 1.23 | 0.796 | 0.704 | 0.33 | 0.292
NCI-H2228 | 0.689 | 0.273 | 0.188 | 0.0855 | 0.0902 | 0.115 | 0.129 | 0.131 | 0.185 | 0.163 | 0.504 | 0.47 | 0.519 | 0.475 | 0.479 | 0.665 | 0.373 | 0.407 | 0.321
NCI-H2347 | 0.385 | 0.229 | 0.171 | 0.277 | 0.238 | 0.302 | 0.478 |  | 0.411 | 0.519 | 0.77 | 0.688 | 0.684 | 0.812 | 0.819 | 0.64 | 0.41 | 0.41 | 0.431
NCI-H2405 | 0.593 | 0.182 | 0.116 | 0.0974 | 0.0903 | 0.455 | 0.647 | 0.686 | 0.752 | 0.754 | 0.907 | 0.899 | 0.701 | 0.85 | 0.939 | 1.02 | 1.14 | 0.931 | 0.522
NCI-H3122 | 1.25 |  | 0.857 | 0.155 | 0.0733 | 0.136 | 0.0774 | 0.0891 | 0.0935 | 0.105 | 0.282 | 0.251 | 0.266 | 0.232 | 0.259 | 0.985 | 0.867 | 0.392 | 
PC-3 [JPC-3] | 0.678 | 0.295 | 0.39 | 0.303 | 0.229 | 0.663 | 0.799 | 0.528 | 0.656 | 0.771 | 1.09 | 1.06 | 0.959 | 1.02 | 1.02 | 0.752 | 0.825 | 0.871 | 0.522
PC-14 | 0.325 | 0.0499 | 0.0618 | 0.0552 | 0.0305 | 0.164 | 0.152 | 0.15 | 0.152 | 0.127 | 0.942 | 0.891 | 0.726 | 0.911 | 1.02 | 0.82 | 0.635 | 0.623 | 0.355
